Values after ≈ are worked out from the molar mass of the structure shown.
Assays:
Assay type in all cases: functional
Candida albicans = test: Antifungal activity against Candida albicans assessed as reduction in fungal growth incubated for 24 hrs by microdilution method
Escherichia coli = test: Antibacterial activity against Escherichia coli assessed as reduction in microbial growth incubated for 24 hrs by microdilution method
Staphylococcus aureus = test: Antibacterial activity against Staphylococcus aureus assessed as reduction in microbial growth incubated for 24 hrs by microdilution method

| SMILES | MIC (Candida albicans) | MIC (Escherichia coli) | MIC (Staphylococcus aureus) |
| --- | --- | --- | --- |
| CCCCCCCCN=c1ccn(CCCCCCCCCCn2ccc(=NCCCCCCCC)cc2)cc1 [OCTENIDINE] | 0.5 µM (≈ 0.275 µg/mL) | 0.5 µM | 0.5 µM |
| COc1ccc(C2COc3c(ccc4c3C=CC(C)(CCC=C(C)C)O4)C2)c(O)c1O (configuration not stated) | 36.9 µM (≈ 15.6 µg/mL) | 296 µM | 36.9 µM |
| CC(C)=CCC/C(C)=C/Cc1cc([C@H]2Oc3cc(O)ccc3C(=O)[C@@H]2O)cc(O)c1O | 73.7 µM (≈ 31.3 µg/mL) | 294 µM | 36.7 µM |
| CC(C)=CCC[C@]1(C)C=Cc2c(ccc3c2O[C@H](c2ccc(O)c(O)c2)[C@@H](O)C3=O)O1 | 74.1 µM (≈ 31.3 µg/mL) | > 1000 µM | 36.9 µM |
| CC(C)=CCC[C@]1(C)C=Cc2cc([C@H]3Oc4cc(O)ccc4C(=O)[C@@H]3O)cc(O)c2O1 | 74.1 µM (≈ 31.3 µg/mL) | 296 µM | 9.2 µM |
| CC(=O)O[C@H]1CC[C@]2(C)[C@H]3CC=C4[C@@H]5CC(C)(C)CC[C@]5(C(=O)O)CC[C@@]4(C)[C@]3(C)CC[C@H]2C1(C)C [ACETYL OLEANOLIC ACID] | 251 µM (≈ 125 µg/mL) | > 1000 µM | 251 µM |
| O=C(/C=C/c1ccc(O)cc1)c1ccc(O)cc1O [ISOLIQUIRITIGENIN] | > 1000 µM | > 1000 µM | 488 µM |
| C=C(CO)[C@H]1Cc2c(ccc3c(=O)c4c(oc23)COc2cc(OC)c(OC)cc2-4)O1 | > 1000 µM | > 1000 µM | 612 µM |
| C=C(CO)[C@H]1Cc2c(ccc3c2O[C@@H]2COc4cc(OC)c(OC)cc4[C@]2(O)C3=O)O1 [DABINOL] | 147 µM (≈ 62.5 µg/mL) | > 1000 µM | 293 µM |
| CC(C)=CCCC1(C)C=Cc2c(ccc(C(=O)/C=C/c3ccc(O)cc3)c2O)O1 (configuration not stated) [LESPEOL] | 40 µM (≈ 15.6 µg/mL) | 64 µM | 40 µM |
| C=C[C@@](C)(CCC=C(C)C)c1cc([C@@H]2COc3cc(O)ccc3C2)c(O)c(O)c1OC | 73.7 µM (≈ 31.3 µg/mL) | > 1000 µM | 18.4 µM |
| COc1ccc([C@@H]2COc3c(ccc(O)c3C/C=C(\C)CCC=C(C)C)C2)c(O)c1O | 73.7 µM (≈ 31.3 µg/mL) | 294 µM | 36.7 µM |
| CC(C)=CCC/C(C)=C/Cc1c(O)ccc2c(=O)c(O)c(-c3ccc(O)c(O)c3)oc12 | > 1000 µM | > 1000 µM | > 1000 µM |
| O=C(CC(O)c1ccc(O)cc1)c1ccc(O)cc1O (configuration not stated) | 56.9 µM (≈ 15.6 µg/mL) | > 1000 µM | 14.2 µM |
